Source: patent publication US8343513B2, “Prevention of molecular weight reduction of the polymer, impurity formation and gelling in polymer compositions” (Oakwood Laboratories, LLC, priority 2003, dated 2013)
Where a SMILES comes first, the peptide text is derived from it. [ ]: non-standard residue; d: D form. The star is where a group is joined. dPhe(4-Cl) = N[C@H](Cc1ccc(Cl)cc1)C(=O)O; Nicotinoyl(6-NH2) = Nc1ccc(C(=O)*)cn1; d2Nal = N[C@H](Cc1ccc2ccccc2c1)C(=O)O; Lys(iPr) = CC(C)NCCCC[C@H](N)C(=O)O; d3Pal = N[C@H](Cc1cccnc1)C(=O)O; Picolinoyl = O=C(c1ccccn1)*; dOrn = NCCC[C@@H](N)C(=O)O

Assays:
[1] = Orntide solubility and gelling in solvents and dispersed phase; assay type: physicochemical
Source text: However, most of the GnRH analogs are soluble only at certain concentrations (at very low concentrations of antagonists and moderate concentrations of agonists) beyond which these analogs pose solubility and gelling problems when dissolved in these solvents.
The stability was followed for a day.

[2] = Screening of octreotide related substance formation with polymers and acid additives, 40° C. 24 and 48 hour; assay type: physicochemical; conditions: octreotide with polymer in DCM/methanol
[3] = cited from earlier work

SMILES | related substances formation in words [2] | other results
CC(=O)N[C@H](Cc1ccc2ccccc2c1)C(=O)N[C@H](Cc1ccc(Cl)cc1)C(=O)N[C@H](Cc1cccnc1)C(=O)N[C@@H](CO)C(=O)N[C@@H](CCCCNC(=O)c1ccccn1)C(=O)N[C@H](CCCNC(=O)c1ccc(N)nc1)C(=O)N[C@@H](CC(C)C)C(=O)N[C@@H](CCCCNC(C)C)C(=O)N1CCC[C@H]1C(=O)N[C@H](C)C(N)=O [PPL-ORN-9902] (Ac-[d2Nal][dPhe(4-Cl)][d3Pal]SK(Picolinoyl)[dOrn](Nicotinoyl(6-NH2))L[Lys(iPr)]P[dA]-NH2) |  | time to gel ([1]; 84 mg orntide acetate, 100 mg glacial acetic acid, 130 mg methanol, 1.28 g methylene chloride, warmed to 40° C.): ≤ 30 min
CC(=O)O [glacial acetic acid] | less efficient than lactic and glycolic acids | 
O=C(O)C(O)CO (stereo not shown) [glyceric acid] |  | pKa [3]: 3.25
O=C(O)CO [glycolic acid] | prevented the related substances formation | 
CC(O)C(=O)O (stereo not shown) [lactic acid] | reduced the related substances and made comparable to the control | 
CC(=O)N[C@H](Cc1ccc2ccccc2c1)C(=O)N[C@H](Cc1ccc(Cl)cc1)C(=O)N[C@H](Cc1cccnc1)C(=O)N[C@@H](CO)C(=O)N[C@@H](CCCCNC(=O)c1ccccn1)C(=O)N[C@H](CCCNC(=O)c1ccc(N)nc1)C(=O)N[C@@H](CC(C)C)C(=O)N[C@@H](CCCCNC(C)C)C(=O)N1CCC[C@H]1C(=O)N[C@H](C)C(N)=O [orntide] (Ac-[d2Nal][dPhe(4-Cl)][d3Pal]SK(Picolinoyl)[dOrn](Nicotinoyl(6-NH2))L[Lys(iPr)]P[dA]-NH2) |  | solubility ([1]; aqueous media, even at a pH lower than 5): < 5000 µg/mL
CCCCCCCCCCCCCCCCCC(=O)O [stearic acid] | less efficient than lactic and glycolic acids | 
